From ChEMBL document CHEMBL3301361, “Experimental in vitro DMPK and physicochemical data on a set of publicly disclosed compounds”
≈ marks a conversion by molar mass, not a printed value.

Experiments:
[1] = in vitro; details: Dunkin Hartley, guinea pig, plasma
[2] = in vitro; details: SD, HW or BN, rat, plasma
[3] = in vitro; details: human, plasma
[4] = physchem; details: pH 7.4 buffer
[5] = in vitro; details: mouse, plasma
[6] = in vitro; details: Beagle, dog, plasma
[7] = physchem
[8] = physchem; details: octan-1-ol/water
[9] = in vitro; details: hepatocytes
[10] = in vitro; details: human
[11] = physchem; remark: listed apart in the source
[12] = in vitro; details: human, hepatocytes

SMILES | fraction unbound at 5 h [1] | fraction unbound at 5 h [2] | fraction unbound at 5 h [5] | fraction unbound at 5 h [6] | fraction unbound at 5 h ([3]; PPB) | logD ([8]; pH 7.4, LogD7.4) | hepatocyte CLint [9] | also measured
COCCN(c1cccnc1)P(=O)(c1ccccc1)c1ccccc1 | 0.58 | 0.376 |  |  |  |  |  | fraction unbound at 5 h [3]: 0.0872
COc1nc(Br)cnc1NS(=O)(=O)c1ccc(Cl)s1 |  | 0.002 | 0.0191 | 0.0124 | 0.0013 | 0.99 |  | solubility thermodynamic [4]: 891 µM (≈ 343 µg/mL); pKa [7]: 4.1
C[C@H](Nc1ncc(F)c(Nc2cc(C3CC3)[nH]n2)n1)c1ccc(F)cn1 |  | 0.035 | 0.0418 | 0.183 | 0.0801 | 3.14 |  | 
O=C(c1c2ccccc2cc2ccccc12)N1CCC(N2CCC[C@@H](C(=O)N3CCOCC3)C2)CC1 |  | 0.266 | 0.266 | 0.289 | 0.0661 |  |  | 
COc1ccc2ncc(F)c(CCN3CCC(NCc4cc5c(cn4)OCCO5)CC3)c2n1 |  |  | 0.36 | 0.0968 | 0.173 | 1.46 | 138 µL/min/1e6 cells | 
N#Cc1ccc2c(c1)N(CCN1CCC(NCc3ccc4c(n3)NC(=O)CO4)CC1)C(=O)CO2 | 0.591 |  |  |  |  |  | 8.51 µL/min/1e6 cells | logD ([8]; pH 7.4): 0.23
O=C(CN1CCN(Cc2ccn(-c3ccc(C(F)(F)F)cn3)c2)CC1)NC(c1ccc(F)cc1)c1ccc(F)cc1 |  | 0.0011 | 0.0013 | 0.0006 | 0.0014 |  |  | 
CC(C)N(CCNCCc1ccc(O)c2[nH]c(=O)sc12)C(=O)CCOCCc1ccccc1 | 0.0752 |  |  |  | 0.028 | 2.33 | 99 µL/min/1e6 cells | microsomal CLint ([10]; microsomes): 60 µL/min/mg
Cc1ccc2c(c1)c(-c1ccnc3c(Cl)cccc13)c(C)n2CC(=O)O |  | 0.0077 | 0.0229 | 0.0041 |  | 1.27 |  | pKa [11]: 4.4; solubility thermodynamic [4]: 1320 µM (≈ 481 µg/mL); pKa [7]: 2.9; microsomal CLint ([10]; liver microsomes): 7 µL/min/mg
COc1ccccc1CCNCc1cccc(CCNC[C@H](O)c2ccc(O)c3[nH]c(=O)sc23)c1 | 0.276 | 0.0836 |  |  |  | 0.82 |  | 
CN(CCNCCc1ccc(O)c2[nH]c(=O)sc12)C(=O)CCOCCc1ccccc1 | 0.276 | 0.208 |  |  | 0.107 |  | 140 µL/min/1e6 cells | microsomal CLint ([10]; liver microsomes): 35 µL/min/mg
COc1cnc(-c2ccccc2C(F)(F)CNC(=O)c2ccc(COCC(F)(F)F)nc2)cn1 | 0.0544 | 0.0532 |  |  | 0.0069 |  |  | solubility thermodynamic [4]: 85.1 µM (≈ 41.1 µg/mL)
CC(C)(C)NCC(O)c1ccc(O)c(CO)c1 (centres undefined) [ALBUTEROL] | 0.855 | 0.656 |  |  | 0.772 |  |  | 
O=c1[nH]c2c(O)ccc([C@@H](O)CNCCCOCCNCCc3cccc(Cl)c3)c2s1 | 0.186 |  |  |  |  | -0.03 | < 3 µL/min/1e6 cells | microsomal CLint ([10]; liver microsomes): < 3 µL/min/mg
N=C(NCCCCc1ccc(OCC(O)CO)cc1)NC(=O)c1nc(Cl)c(N)nc1N (centres undefined) [552-02 FREE BASE] | 0.299 | 0.314 |  |  | 0.249 |  |  | 
CCCN(c1cncnc1)P(=O)(c1ccccc1)c1ccccc1 | 0.529 |  |  |  |  |  |  | 
C[C@@](C(=O)O[C@H]1C[N+]2(CCc3ccccc3)CCC1CC2)(c1ccccc1)N1CCCCC1 | 0.129 | 0.22 |  |  |  |  | 76 µL/min/1e6 cells | 
C[C@@](C(=O)O[C@H]1C[N+]2(CCc3ccccc3F)CCC1CC2)(c1ccccc1)N1CCCCC1 | 0.194 |  |  |  |  |  | 130 µL/min/1e6 cells | 

SMILES | fraction unbound at 5 h [1] | fraction unbound at 5 h [2] | fraction unbound at 5 h [5] | fraction unbound at 5 h [6] | fraction unbound at 5 h ([3]; PPB) | logD ([8]; pH 7.4, LogD7.4) | hepatocyte CLint [9] | also measured
CC(=O)Nc1nc2c(Oc3cc(-c4ccc(C(F)(F)F)cc4)ncn3)cccc2s1 [AMG-517] | 0.0139 | 0.002 |  |  | 0.001 |  |  | 
C[C@@](C(=O)O[C@H]1C[N+]2(CC(=O)Nc3ccccc3)CCC1CC2)(c1ccccc1)N1CCCCC1 | 0.0499 |  |  |  |  |  | 64 µL/min/1e6 cells | 
C[C@@H](NC(=O)Cc1ccc(C2CC2)cc1)c1ccc(OCC(F)(F)F)cn1 | 0.0006 | 0.0044 |  |  | 0.0041 |  |  | 
CN(C)CCC1CCN(c2cc(C(=O)NC[C@H]3CC[C@H](CNC(=O)OC(C)(C)C)CC3)c3ccccc3n2)CC1 |  | 0.04 | 0.0079 | 0.0066 | 0.0335 |  |  | 
C[C@H](Nc1ncc(Cl)c(Nc2cc(C3CC3)[nH]n2)n1)c1ccc(F)cn1 |  | 0.009 | 0.0358 | 0.11 | 0.0358 |  |  | 
Cc1cc(CCC[N+]23CCC(CC2)[C@@H](OC(=O)[C@](C)(c2ccccc2)N2CCCCC2)C3)ccn1 | 0.529 |  |  |  |  |  | 36.1 µL/min/1e6 cells | 
C[C@@](C(=O)O[C@H]1C[N+]2(CCCc3ccc4ncsc4c3)CCC1CC2)(c1ccccc1)N1CCCCC1 | 0.244 |  |  |  |  |  | 66 µL/min/1e6 cells | 
O=c1cc(OCc2ccccc2)ccn1-c1ccc2c(cnn2CCN2CCCC2)c1 |  | 0.119 | 0.137 | 0.16 | 0.17 | 2 |  | 
Cc1ccc2c(OCCN3CCC(Cc4cccc(NS(C)(=O)=O)c4)CC3)cccc2n1 | 0.0437 | 0.0532 |  |  |  |  |  | 
COc1cccc(CNCc2cccc(CCNC[C@H](O)c3ccc(O)c4[nH]c(=O)sc34)c2)c1 | 0.216 | 0.154 |  |  | 0.137 | 0.91 |  | microsomal CLint ([10]; liver microsomes): 35 µL/min/mg
CCCN(c1cccc(S(C)(=O)=O)c1)P(=O)(c1ccccc1)c1ccccc1 | 0.289 | 0.186 |  |  |  |  |  | fraction unbound at 5 h [3]: 0.0321
O=C(NCC1CCCCN1)c1cc(OCC(F)(F)F)ccc1OCC(F)(F)F (centres undefined) [FLECAINIDE] | 0.574 | 0.535 |  |  | 0.619 | 1.13 |  | 
CCCN(CCNCCc1ccc(O)c2[nH]c(=O)sc12)C(=O)CCOCCc1ccccc1 | 0.11 |  |  |  | 0.0606 |  | 107 µL/min/1e6 cells | microsomal CLint ([10]; liver microsomes): > 150 µL/min/mg
CC(C)C[C@H](CO)Nc1nc(S[C@@H](C)c2ccccc2F)nc2nc(N)sc12 |  |  | 0.002 | 0.002 | 0.0011 |  |  | hepatocyte CLint [12]: 30.9 µL/min/1e6 cells
C[C@H](c1nc2ncccc2c(=O)n1-c1ccc(Cl)cc1)N(CC1CCS(=O)(=O)CC1)C(=O)Cc1ccc(C(F)(F)F)c(F)c1 |  | 0.101 | 0.0477 | 0.0544 | 0.11 | 2.9 | 7.08 µL/min/1e6 cells | microsomal CLint ([10]; microsomes): 5.25 µL/min/mg
COc1ccc(Cl)cc1C(=O)NCCc1ccc(S(=O)(=O)NC(=O)NC2CCCCC2)cc1 [GLYBURIDE] |  | 0.0012 | 0.0027 |  | 0.0012 | 2.23 |  | solubility thermodynamic [4]: 10.5 µM (≈ 5.19 µg/mL); hepatocyte CLint [12]: 14.4 µL/min/1e6 cells; pKa [7]: 3.76; microsomal CLint ([10]; liver microsomes): 22 µL/min/mg
COc1ccccc1CCNCc1ccc(CCNC[C@H](O)c2ccc(O)c3[nH]c(=O)sc23)cc1 | 0.0447 | 0.0606 |  |  | 0.0447 |  | 29 µL/min/1e6 cells | microsomal CLint ([10]; liver microsomes): 25 µL/min/mg
CCN(CCNCCc1ccc(O)c2[nH]c(=O)sc12)C(=O)CCOCCc1ccccc1 | 0.103 |  |  |  | 0.0544 | 1.92 | 135 µL/min/1e6 cells | microsomal CLint ([10]; liver microsomes): 82 µL/min/mg
